Data taken from ChEMBL document CHEMBL3120156, “Discovery and development of simeprevir (TMC435), a HCV NS3/4A protease inhibitor” (J Med Chem, 2014).

Legend:
[1] = Inhibition of Hepatitis C virus genotype 1a full-length NS3/4A protease; parameters: species or system Hepatitis C virus subtype 1a
[2] = Intrinsic clearance in human liver microsomes; format: ADME; details: read-out: CLH
[3] = Apparent permeability of the compound from apical to basolateral side of human Caco2 cells; format: ADME, cell-based; details: Caco-2
Hepatitis C virus [4] = experiment: Antiviral activity against Hepatitis C virus genotype 1b infected in Huh7-clone ET Rep cells assessed as inhibition of HCV replication by luciferase assay; format: functional, organism-based, Hepacivirus hominis
[5] = Volume of distribution at steady state in Sprague-Dawley rat at 2 mg/kg, iv administered as single dose with 20% Hydroxypropyl-beta-cyclodextrine; format: ADME, organism-based; parameters: dose 2 mg/kg, route intravenous; details: in vivo, read-out: Vdss
[6] = Drug metabolism in human liver microsomes at 5 uM at 37 degC after 15 mins; format: ADME; details: read-out: Drug metabolism
[7] = Inhibition of Hepatitis C virus genotype 1b NS3/4A protease; parameters: species or system Hepatitis C virus subtype 1b
Hepatitis C virus [8] = experiment: Antiviral activity against Hepatitis C virus genotype 1a; format: functional, organism-based, Hepacivirus hominis; details: subtype 1a
Hepatitis C virus [9] = experiment: Antiviral activity against Hepatitis C virus genotype 1 infected in human patient assessed as log10 reduction of viral RNA level administered as oral dose measured after 2 days; format: functional, Hepacivirus hominis
[10] = Metabolic stability in rat bile assessed as unchanged drug level at 1 mg/kg, iv after 1 hr; format: ADME, organism-based; parameters: dose 1 mg/kg, route intravenous; details: read-out: Stability
[11] = Oral bioavailability in rat; format: ADME, organism-based; details: in vivo
[12] = Plasma clearance in rat; format: ADME, organism-based
[13] = Ratio of drug level in liver to plasma in Sprague-Dawley rat at 10 mg/kg, po administered with 50% PEG400 containing 2.5% of Vitamin E-TPGS measured after 6 hrs; format: ADME, organism-based; parameters: dose 10 mg/kg, route oral; details: liver and plasma
[14] = Half life in Sprague-Dawley rat at 10 mg/kg, po administered with 50% PEG400 containing 2.5% of Vitamin E-TPGS; format: ADME, organism-based; parameters: dose 10 mg/kg, route oral; details: in vivo
[15] = Tmax in Sprague-Dawley rat at 10 mg/kg, po administered with 50% PEG400 containing 2.5% of Vitamin E-TPGS; format: ADME, organism-based; parameters: dose 10 mg/kg, route oral; details: in vivo
[16] = AUC in Sprague-Dawley rat at 10 mg/kg, po administered with 50% PEG400 containing 2.5% of Vitamin E-TPGS; format: ADME, organism-based; parameters: dose 10 mg/kg, route oral; details: plasma
[17] = Ratio of drug level in liver to plasma in Sprague-Dawley rat at 2 mg/kg, iv administered as single dose with 20% Hydroxypropyl-beta-cyclodextrine measured after 6 hrs; format: ADME, organism-based; parameters: dose 2 mg/kg, route intravenous; details: liver and plasma
[18] = Cmax in Sprague-Dawley rat at 10 mg/kg, po administered with 50% PEG400 containing 2.5% of Vitamin E-TPGS; format: ADME, organism-based; parameters: dose 10 mg/kg, route oral; details: in vivo
[19] = Oral bioavailability in Sprague-Dawley rat at 10 mg/kg administered with 50% PEG400 containing 2.5% of Vitamin E-TPGS; format: ADME, organism-based; details: in vivo
[20] = Clearance in Sprague-Dawley rat at 2 mg/kg, iv administered as single dose with 20% Hydroxypropyl-beta-cyclodextrine; format: ADME, organism-based; parameters: dose 2 mg/kg, route intravenous; details: in vivo
PBMC = experiment: Cytostatic activity against staphylococcal enterotoxin B-stimulated human PBMC assessed as decrease in cell proliferation after 7 hrs by [3H]thymidine incorporation assay; format: cell-based; details: read-out: CS50 (the source's name)
[21] = Cytotoxicity against staphylococcal enterotoxin B-stimulated human PBMC assessed as decrease in cell viability after 72 hrs by WST-1 assay; format: cell-based
[22] = Protein binding in plasma (unknown origin); format: ADME, cell-free; details: read-out: PPB
Hepatitis C virus [23] = experiment: Antiviral activity against Hepatitis C virus infected in po dosed patient assessed as log10 reduction of HCV RNA level administered qd for 5 days; format: functional, Hepacivirus hominis

Row | Compound | Ki [1] [nM] | EC50 (Hepatitis C virus [4]) [nM] | further results
1 | COc1ccc2c(O[C@@H]3C[C@H]4C(=O)N[C@]5(C(=O)NS(=O)(=O)C6CC6)C[C@H]5/C=C\CCCCN(C)C(=O)N4C3)nc(-c3ccccc3)nc2c1C | 0.2 | 11 | microsomal CLint [2]: 17 µL/min/mg; Papp A→B [3]: 26 ×10⁻⁶ cm/s; Vd [5]: 1.1 L/kg
2 | COc1ccc(-c2nc(O[C@@H]3C[C@H]4C(=O)N[C@]5(C(=O)NS(=O)(=O)C6CC6)C[C@H]5/C=C\CCCCN(C)C(=O)N4C3)c3ccc(OC)c(C)c3n2)cc1 | 0.6 | 3 | microsomal CLint [2]: 8 µL/min/mg; Papp A→B [3]: 33 ×10⁻⁶ cm/s
3 | C=C[C@@H]1C[C@]1(NC(=O)[C@@H]1C[C@@H](Oc2cc(-c3ccccc3)nc3cc(OC)ccc23)C=C1C(=O)N[C@H](C(=O)N[C@H](C(=O)NC)C1CCCCC1)C(C)(C)C)C(=O)O | 1.3 |  | 
4 | C=C[C@@H]1C[C@]1(NC(=O)[C@@H]1C[C@@H](Oc2cc(-c3ccccc3)nc3cc(OC)ccc23)C[C@H]1C(=O)N[C@H](C(=O)N[C@H](C(=O)NC)C1CCCCC1)C(C)(C)C)C(=O)O | 22 |  | 
5 | CCc1cnc(-c2ccc(C)cc2NC(=O)O[C@@H]2C[C@H]3C(=O)N[C@]4(C(=O)NS(=O)(=O)C5CC5)C[C@H]4/C=C\CCCCN(C)C(=O)[C@@H]3C2)s1 | 0.2 | 3.2 | microsomal CLint [2]: < 6 µL/min/mg; Papp A→B [3]: 15 ×10⁻⁶ cm/s
6 | CCOc1cc(O[C@@H]2C[C@H]3C(=O)N[C@]4(C(=O)NS(=O)(=O)C5CC5)C[C@H]4/C=C\CCCCN(C)C(=O)[C@@H]3C2)c2ccc(OC)c(C)c2n1 |  | 4.3 | 
7 | COc1cc(O[C@@H]2C[C@H]3C(=O)N[C@]4(C(=O)NS(=O)(=O)C5CC5)C[C@H]4/C=C\CCCCN(C)C(=O)N3C2)nc(-c2ccccc2)n1 |  | 84 | 
8 | COc1ccc2c(O[C@@H]3C[C@H]4C(=O)N[C@]5(C(=O)NS(=O)(=O)C6CC6)C[C@H]5/C=C\COCCN(C)C(=O)[C@@H]4C3)cc(-c3ccccc3)nc2c1 |  | 320 | 
9 | COc1ccc2c(O[C@@H]3C[C@H]4C(=O)N[C@]5(C(=O)O)C[C@H]5/C=C/CCCCC[C@H](NC(=O)OC5CCCC5)C(=O)N4C3)cc(-c3csc(NC(C)C)n3)nc2c1 [listing 1 of 2 here] |  | 1.63 | metabolised at 0.25 h, 5 µM [6]: 2.5%; Ki [7]: 0.66 nM; EC50 (Hepatitis C virus [8]): 4 nM
10 | COc1ccc2c(O[C@@H]3C[C@H]4C(=O)N[C@]5(C(=O)O)C[C@H]5/C=C/CCCCC[C@H](NC(=O)OC5CCCC5)C(=O)N4C3)cc(-c3csc(NC(C)C)n3)nc2c1 [listing 2 of 2 here] |  |  | FC (Hepatitis C virus [9]): 2
11 | COc1ccc2c(O[C@@H]3C[C@H]4C(=O)N[C@]5(C(=O)O)C[C@H]5/C=C\CCCN(C(=O)OC(C)(C)C)C(=O)[C@@H]4C3)cc(-c3ccccc3)nc2c1 | 130 | > 10 | 
12 | COc1ccc2c(O[C@@H]3C[C@H]4C(=O)N[C@]5(C(=O)O)C[C@H]5/C=C\CCCCN(C(=O)OC(C)(C)C)C(=O)[C@@H]4C3)cc(-c3ccccc3)nc2c1 | 31 | > 10 | 
13 | COc1ccc2c(O[C@@H]3C[C@H]4C(=O)N[C@]5(C(=O)O)C[C@H]5/C=C\CCCCCN(C(=O)OC(C)(C)C)C(=O)[C@@H]4C3)cc(-c3ccccc3)nc2c1 | 710 | > 10 | 
14 | COc1ccc2c(O[C@@H]3C[C@H]4C(=O)N[C@]5(C(=O)O)C[C@H]5/C=C\CCCCN(N)C(=O)[C@@H]4C3)cc(-c3ccccc3)nc2c1 | 6 | 7.6 | 
15 | COc1ccc2c(O[C@H]3C=C4C(=O)N(N)CCCC/C=C\[C@@H]5C[C@@]5(C(=O)O)NC(=O)C4C3)cc(-c3ccccc3)nc2c1 (stereo partly specified) | 15 | 5.4 | 
16 | COc1ccc2c(O[C@H]3C[C@H]4C(=O)NCCCC/C=C\[C@@H]5C[C@@]5(C(=O)O)NC(=O)[C@@H]4C3)cc(-c3ccccc3)nc2c1 | 260 | > 10 | 
17 | COc1ccc2c(O[C@@H]3C[C@H]4C(=O)N[C@]5(C(=O)O)C[C@H]5/C=C\CCCCN(C)C(=O)[C@@H]4C3)cc(-c3ccccc3)nc2c1 | 44 | 2.2 | 
18 | COc1ccc2c(O[C@@H]3C[C@H]4C(=O)N[C@]5(C(=O)NS(=O)(=O)C6CC6)C[C@H]5/C=C\CCCCN(NC(=O)OC(C)(C)C)C(=O)[C@@H]4C3)cc(-c3ccccc3)nc2c1 | 0.07 | 0.53 | 
19 | COc1ccc2c(O[C@@H]3C[C@H]4C(=O)N[C@]5(C(=O)NS(=O)(=O)C6CC6)C[C@H]5/C=C\CCCCN(N)C(=O)[C@@H]4C3)cc(-c3ccccc3)nc2c1 | 0.19 | 0.033 | 
20 | COc1ccc2c(O[C@H]3C[C@H]4C(=O)NCCCC/C=C\[C@@H]5C[C@@]5(C(=O)NS(=O)(=O)C5CC5)NC(=O)[C@@H]4C3)cc(-c3ccccc3)nc2c1 | 2.2 | 4.4 | 
21 | COc1ccc2c(O[C@@H]3C[C@H]4C(=O)N[C@]5(C(=O)NS(=O)(=O)C6CC6)C[C@H]5/C=C\CCCCN(C)C(=O)[C@@H]4C3)cc(-c3ccccc3)nc2c1 |  |  | remaining at 1 h [10]: 95%; bioavailability [11]: 2.5%; clearance [12]: 46.5 mL/min/kg
22 | COc1ccc2c(O[C@@H]3C[C@H]4C(=O)N[C@]5(C(=O)NS(=O)(=O)C6(C)CC6)C[C@H]5/C=C\CCCCCNC(=O)N4C3)cc(-c3nc(C(C)C)cs3)nc2c1 |  |  | Kp at 6 h [13]: 100; half-life [14]: 3 h; metabolised at 0.25 h, 5 µM [6]: 89%; Tmax [15]: 0.75 h; AUC [16]: 6 µM·h; Vd [5]: 1 L/kg; Kp at 6 h [17]: 550
23 | COc1ccc2c(O[C@@H]3C[C@H]4C(=O)N[C@]5(C(=O)NS(=O)(=O)C6(C)CC6)C[C@H]5/C=C\CCCCCC(=O)N4C3)cc(-c3nc(C(C)C)cs3)nc2c1C | 0.2 | 3.8 | half-life [14]: 2.7 h; Cmax [18]: 930 nM; bioavailability [19]: 31%; Papp A→B [3]: 11.1 ×10⁻⁶ cm/s; Tmax [15]: 0.75 h; clearance [20]: 15.7 mL/min/kg; Vd [5]: 0.56 L/kg
24 | COc1ccc2c(O[C@@H]3C[C@H]4C(=O)N[C@]5(C(=O)NS(=O)(=O)C6CC6)C[C@H]5/C=C\CCCCN(C)C(=O)[C@@H]4C3)cc(-c3nc(C(C)C)cs3)nc2c1C [SIMEPREVIR] | 0.36 | 7.8 | GI50 (PBMC): ≥ 10000 nM; CC50 at 72 h [21]: ≥ 10000 nM; fraction unbound [22]: < 0.01; EC90 (Hepatitis C virus [4]): 19 nM; FC (Hepatitis C virus [23]): 3.9; Ki [7]: 1.4 nM
25 | H-DDIVPC-OH | 71000 |  | 
